Experimental findings from publication PMC5007854, “β-Nitrostyrenes as Potential Anti-leishmanial Agents” (Frontiers in Microbiology, 2016) are described below.

Values after ≈ are worked out from the molar mass of the structure shown. Like-named read-outs stand apart in the source and are kept apart here.

The test system of series [1] is Aspergillus fumigatus ATCC 16424. Description: Broth microdilution antifungal susceptibility (MIC/MFC). Format: cell-based. The following applies: for MIC / MFC: Aspergillus fumigatus; for MIC: ATCC16424, 48 h, read-out: MIC, Af ATCC 16424; for MFC: ATCC16424, ≥99.9% reduction of original inoculum, read-out: MFC, Af ATCC 16424. In a few lines:
(§1)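 CLSI broth microdilution: Ca/Mg-supplemented Mueller-Hinton for bacteria (~5 × 10^5 CFU/mL, 24 h), MOPS-buffered RPMI 1640 pH 7.0 for fungi (Candida ~2.5 × 10^4, Aspergillus 0.4-5 × 10^4 CFU/mL, 48 h), 35°C, 1% DMSO, 64 to 0.12 μg/mL. MIC read visually; MBC/MFC by plating clear wells.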

Series [2] relates to Aspergillus niger ATCC 16404. Described as above. Format: cell-based. The following applies: for MIC / MFC: Aspergillus niger; for MIC: ATCC16404, 48 h, read-out: MIC, An ATCC 16404; for MFC: ATCC16404, ≥99.9% reduction of original inoculum, read-out: MFC, An ATCC 16404. In short, it runs like this: as §1
The subject of series [3] is Candida albicans ATCC 90028. Described as above. The series is classed as cell-based. As to conditions: Candida albicans; for MIC: ATCC90028, 48 h, broth microdilution, 35°C, 48 h, read-out: MIC, Ca ATCC 90028; for MFC: ATCC90028, ≥99.9% reduction of original inoculum, read-out: MFC, Ca ATCC 90028. In short, it runs like this: as §1
Series [4] relates to Candida glabrata ATCC 90030. The series is described as above. As to conditions: Nakaseomyces glabratus; for MIC: ATCC90030, 48 h, broth microdilution, 35°C, 48 h, read-out: MIC, Cg ATCC 90030; for MFC: ATCC90030, ≥99.9% reduction of original inoculum, read-out: MFC, Cg ATCC 90030. Format: cell-based. In short, it runs like this:
as §1

Series [5] concerns L. donovani promastigotes. Description: Dose-dependent anti-promastigote activity, IC50 and IC90. The series is classed as cell-based, Leishmania donovani. The protocol: L. donovani parasites (MHOM/IN/83/AG83) were maintained in vivo in BALB/c mice. Promastigotes were routinely cultured at 22°C in medium M199 supplemented with 10% heat inactivated fetal bovine serum (FBS, HiMedia Laboratories, Mumbai, India), penicillin 100 (IU/ml), streptomycin (100 μg/ml). Log phase promastigotes were sub-cultured every 72–96 h, the inoculum being 2 × 10^6 cells/ml (Afrin et al., [2002]).
AmB was used as a standard antileishmanial drug control. The cell viability was evaluated by microscopically and the mean percentage viability was calculated as follows: Mean cell number of treated parasites / Mean cell number of untreated parasites × 100. The 50 and 90% inhibitory concentration (IC50 and IC90) i.e., the concentration of drugs that decreased the cell growth by 50 and 90% respectively was determined by graphical extrapolation after plotting the graph of % viability vs. concentration of drug (Islamuddin et al., [2014b]).
(§2) In vitro antileishmanial activity was expressed as IC50 by linear regression analysis. Values are mean ± SE of samples in triplicate from at least three independent experiments. Statistical analysis was performed using ANOVA followed by Dunnett's test. ^*P < 0.05, ^**P < 0.01 and ^***P < 0.001 compared with the untreated control group were considered significant.

The subject of series [6] is L. donovani promastigotes. Description: Leishmanicidal assay (growth reversion after wash-out). Format: cell-based, Leishmania donovani. The following applies: 1 μM, 72 h treatment, then 72 h in fresh media. Here is the method:
To confirm the leishmanicidal effect of compounds 9, 12, 14, and 18, treated and untreated parasites (1 μM) after 72 h of incubation, were washed two times with fresh incomplete medium and finally resuspended in complete media, transferred back to 22°C and allowed to grow for 72 h. The viability of the parasites was determined microscopically (Afrin et al., [2001]).

The test system of series [7] is L. donovani intracellular amastigotes. Description: Anti-amastigote activity in ex vivo macrophage model. The series is classed as cell-based, Leishmania donovani. The following applies: Leishmania donovani, Peritoneal macrophage, in Mus musculus; intracellular amastigotes in BALB/c peritoneal macrophages, 48 h; read-out: L. donovani amastigotes IC50 ± SEM.
Text: BALB/c mice was used for the isolation of peritoneal macrophages in the ex vivo anti-amastigote study after prior approval from the Jamia Hamdard Animal Ethics Committee (JHAEC). JHAEC is registered under the Committee for the purpose of supervision and control of experiments on animals (CPCSEA). Mice were individually housed in the Central Animal House of Jamia Hamdard as per internationally accepted norms. The mice were kept in standard size polycarbonate cages under controlled conditions of temperature (23 ± 1°C), humidity (55 ± 10%), 12:12 h of light and dark cycle and fed with standard pellet diet and filtered water (ad libitum).
Macrophages from the peritonial cavity of BALB/c mice (1 × 10^6 cellsml^−1) were allowed to adhere to round glass coverslips in a 24 well tissue culture plate and incubated for 12 h at 37°C in a CO2 incubator. After removal of the non-adherent macrophages, the cells were infected with stationary phase promastigotes using a cell to parasite ratio of 1:10 and incubated at 37°C for 24 h. The non-phagocytosed parasites were removed by washing, and the infected macrophages incubated with the test compounds 9, 12, 14, and 18 (0–25 μM) for an additional 48 h. The coverslips were fixed in methanol and giemsa-stained for microscopic evaluation (100X) of amastigote infectivity. Number of amastigotes per 100 macrophages were enumerated and the concentration that decreased amastigotes by 50% (IC50) was determined (Wong et al., [2012]; Islamuddin et al., [2014a]).
as §2

Series [8] deals with Escherichia coli ATCC 25922. Nature of the series: Broth microdilution antibacterial susceptibility (MIC/MBC). The series is classed as cell-based. As to conditions: for MIC / MBC: Escherichia coli; for MIC: ATCC25922, 24 h, read-out: MIC, Ec ATCC 25922; for MBC: ATCC25922, ≥99.9% reduction of original inoculum, read-out: MBC, Ec ATCC 25922. In a few lines: as §1
(In general: In broth dilution the organism is exposed to a series of concentrations in liquid medium.)

Series [9] relates to Pseudomonas aeruginosa ATCC 27853. Described as above. Format: cell-based. As to conditions: for MIC / MBC: Pseudomonas aeruginosa; for MIC: ATCC27853, 24 h, read-out: MIC, Pa ATCC 27853; for MBC: ATCC27853, ≥99.9% reduction of original inoculum, read-out: MBC, Pa ATCC 27853. In a few lines: as §1
Series [10] has as its system Staphylococcus aureus ATCC 29213. The series is described as above. The series is classed as cell-based. As to conditions: for MIC / MBC: Staphylococcus aureus; for MIC: ATCC29213, 24 h, read-out: MIC, Sa ATCC 29213; for MBC: ATCC29213, ≥99.9% reduction of original inoculum, read-out: MBC, Sa ATCC 29213. In a few lines:
as §1

The test system of series [11] is Staphylococcus epidermidis ATCC 14990. The description is as above. The series is classed as cell-based. As to conditions: for MIC / MBC: Staphylococcus epidermidis; for MIC: ATCC14990, 24 h, read-out: MIC, Se ATCC 14990; for MBC: ATCC14990, ≥99.9% reduction of original inoculum, read-out: MBC, Se ATCC 14990. In short, it runs like this: as §1
Series [12] has as its system L. donovani promastigotes. Nature of the series: Anti-leishmanial screening at 100 μM, parasite viability by microscopy. The series is classed as cell-based, Leishmania donovani. The following applies: 100 μM, 72 h, phase contrast microscope. In short, it runs like this: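 Promastigotes (MHOM/IN/83/AG83) at 2 × 10^6 cells/mL in M199 with 10% FBS exposed to compound at 100 μM for 72 h at 22°C. Viability assessed microscopically; 0.2% DMSO solvent control, amphotericin B reference.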

[13] abbreviates: broth microdilution, 35°C, 48 h.
Setting [14] is: broth microdilution, 35°C, 24 h.

The MIC is the smallest concentration in the dilution series that meets the test's criterion for growth inhibition. Usually MFC stands for the smallest concentration meeting the test's criterion for killing the fungus. Usually IC50 stands for the concentration that gives 50% inhibition. For orientation: IC90 means the concentration at which the effect reaches the 90% level. Take `C[C@@H]1[C@H](O)[C@@H](C)/C=C/C=C/C=C/C=C/C=C/C=C/C=C/[C@H](O[C@@H]2O[C@H](C)[C@@H](O)[C@H](N)[C@@H]2O)C[C@@H]2O[C@](O)(C[C@@H](O)C[C@@H](O)[C@H](O)CC[C@@H](O)C[C@@H](O)CC(=O)O[C@H]1C)C[C@H](O)[C@H]2C(=O)O` [AmB, Amphotericin B, reference compound]: the MIC in series [1] (setting [13]) came out at 0.5 mg/L (≈ 0.541 µM); in [2] (setting [13]), 1 mg/L (≈ 1.08 µM); in series [3], 0.5 mg/L (≈ 0.541 µM); in series [4], 0.5 mg/L (≈ 0.541 µM). For the same compound, the MFC in [1] came to 1 mg/L (≈ 1.08 µM); in series [2], 1 mg/L (≈ 1.08 µM); in [3] it was 0.5 mg/L (≈ 0.541 µM); in series [4], 0.5 mg/L (≈ 0.541 µM). Further, the IC50 is 0.0196 ± 0.00171 µM in [5] (Leishmania donovani, 72 h, 22°C, mean from three determinations, read-out: L. donovani promastigotes IC50 ± SEM) and 0.0278 ± 0.00326 µM in series [7]. Besides, in [5] (Leishmania donovani, 72 h, 22°C, mean from three determinations, read-out: L. donovani promastigotes IC90 ± SEM), the IC90 is 0.0826 ± 0.00136 µM. Moreover, the “Leishmanicidal effect (reversion after wash and 72 h in fresh media)” value in series [6] is listed as “as also observed in positive drug control”.
What is called MBC is the lowest tested concentration that kills the bacteria rather than only halting them. Usually melting point stands for the temperature, or range, at which the solid turns liquid. The compound `CC/C(=C\c1cccc(O)c1)[N+](=O)[O-]` [Compound 21, 3-((E)-2-nitrobut-1-enyl) phenol] returned a melting point of 82 to 84 °C. Also, in series [8] (setting [14]), the MIC is 16 to 32 mg/L (≈ 82.8 to 166 µM) and the “MIC, Ec ATCC 25922” value is 32 mg/L (≈ 166 µM). Besides, the MBC in [8] is 64 mg/L (≈ 331 µM). Further, in [9] (setting [14]), the MIC was in the range of 16 to 32 mg/L (≈ 82.8 to 166 µM) and the “MIC, Pa ATCC 27853” value worked out at 32 mg/L (≈ 166 µM). In addition, the MBC in [9] was found to be 64 mg/L (≈ 331 µM). Further, in series [10] (setting [14]), the MIC was 2 to 32 mg/L (≈ 10.4 to 166 µM) and the “MIC, Sa ATCC 29213” value came out at 2 mg/L (≈ 10.4 µM). Besides, the MBC in [10] was 4 mg/L (≈ 20.7 µM). For the same compound, in series [11] (setting [14]), the MIC is 2 to 16 mg/L (≈ 10.4 to 82.8 µM) and the “MIC, Se ATCC 14990” value was found to be 2 mg/L (≈ 10.4 µM). In addition, the MBC in series [11] worked out at 2 mg/L (≈ 10.4 µM). In series [1] (setting [13]), the MIC lay in the range of 4 to 8 mg/L (≈ 20.7 to 41.4 µM) and the “MIC, Af ATCC 16424” value was found to be 8 mg/L (≈ 41.4 µM). The MFC in [1] stood at 8 mg/L (≈ 41.4 µM). In addition, in [2] (setting [13]), the MIC fell in the range of 2 to 4 mg/L (≈ 10.4 to 20.7 µM) and the “MIC, An ATCC 16404” value is 4 mg/L (≈ 20.7 µM). Further, the MFC in series [2] was 8 mg/L (≈ 41.4 µM). Moreover, in series [3], the MFC came to 32 mg/L (≈ 166 µM). Also, in series [4], the MFC was 16 mg/L (≈ 82.8 µM). Moreover, in series [12], the “Parasite viability after treatment” value is given as “All the parasites were found to be dead”. Also, in series [5] (Leishmania donovani, 72 h, 22°C, values given in μM, read-out: IC50 against promastigotes), the IC50 worked out at 28.4 ± 3.11 µM.
For the compound `COc1ccc(/C=C(\C)[N+](=O)[O-])cc1OC` [Compound 23, 1,2-dimethoxy-4-((E)-2-nitroprop-1-enyl) benzene], the melting point is 70 to 72 °C. Further, in series [8] (setting [14]), the MIC is > 64 mg/L. Also, the MBC in series [8] was > 64 mg/L. For the same compound, in [9] (setting [14]), the MIC was > 64 mg/L. Further, the MBC in series [9] was > 64 mg/L. For the same compound, the MIC in series [10] (setting [14]) stood at 8 mg/L (≈ 35.8 µM). Moreover, in series [10], the MBC came to 16 mg/L (≈ 71.7 µM). The MIC in series [11] (setting [14]) came out at 8 mg/L (≈ 35.8 µM). Also, the MBC in [11] is 8 mg/L (≈ 35.8 µM). In series [1] (setting [13]), the MIC is 16 mg/L (≈ 71.7 µM). Besides, in series [1], the MFC was found to be 16 mg/L (≈ 71.7 µM). In addition, the MIC in series [2] (setting [13]) was 8 mg/L (≈ 35.8 µM). The MFC in series [2] was 8 mg/L (≈ 35.8 µM). In series [3], the MIC is 32 mg/L (≈ 143 µM) and the MFC turned out to be 32 mg/L (≈ 143 µM). In [4], the MIC was found to be 4 mg/L (≈ 17.9 µM) and the MFC came out at 4 mg/L (≈ 17.9 µM). The “Parasite viability after treatment” value in series [12] was “All the parasites were found to be dead”. The “Anti-leishmanial activity, in words (compounds with IC50 determined)” value in [5] (L. donovani promastigotes) was “moderate activity”.
